A short description of data set [1]: Cytotoxicity against […] cells at 2 ug/disk. Format: cell-based.
Data set [2] concerns Human alphaherpesvirus 1. Kind of data set: Antiviral activity against HSV1 infected in […] cells at 20 ug/disk. Format: functional, organism-based.
For data set [3], the system named is Poliovirus 1. Kind of data set: Antiviral activity against Poliovirus type 1 infected in […] cells at 20 ug/disk. Format: functional, organism-based.
The subject of data set [4] is Human alphaherpesvirus 1. Kind of data set: Antiviral activity against HSV1 infected in […] cells at 2 ug/disk. Format: functional, organism-based.
Data set [5] has as its system Poliovirus 1. Kind of data set: Antiviral activity against Poliovirus type 1 infected in […] cells at 2 ug/disk. Format: functional, organism-based.

Experimental findings from ChEMBL document CHEMBL1151130, “Oxygenated Furanosesterterpene Tetronic Acids from a Sponge of the Genus Ircinia” (J Nat Prod, 1988) are described below.

The source made the active and inactive calls. No cut-off for these calls is given here.

As to `CC1=C(O)/C(=C/[C@@H](C)CCC/C(C)=C/CC/C(C)=C/CCc2ccoc2)OC1=O`, the Activity entry in data set [1] was “Toxic”. In the case of `CC1=C(O)/C(=C/[C@@H](C)CCC/C(C)=C/CCC(C)(O)CCCc2ccoc2)OC1=O` (stereo partly drawn), the outcome in the data set with Human alphaherpesvirus 1 [2] and with Poliovirus 1 [3] was inactive.

As to `COC1=C(C)C(=O)O/C1=C\[C@@H](C)CCC/C(C)=C/CCC(C)(O)CCCc1ccoc1` (stereo partly drawn), the outcome in the data set on Human alphaherpesvirus 1 [2] and with Poliovirus 1 [3] was inactive. For the molecule `COC1=C(C)C(=O)O/C1=C\[C@@H](C)CCC/C(C)=C/CC/C(C)=C/CCc1ccoc1`, the outcome with Human alphaherpesvirus 1 [2] and in the data set on Poliovirus 1 [3] was inactive. In the case of `COC1=C(C)C(=O)O/C1=C\[C@@H](C)CCC/C(C)=C/CC/C(C)=C/CC(=O)c1ccoc1`, the outcome in the data set on Human alphaherpesvirus 1 [4] and in the data set with Poliovirus 1 [5] was inactive.

As to `COC1=C(C)C(=O)O/C1=C\[C@@H](C)CCC/C(C)=C/C/C=C(\C)CCC(=O)c1ccoc1`, the outcome in the data set with Human alphaherpesvirus 1 [4] and in the data set with Poliovirus 1 [5] was inactive. As to `C=C(CC/C=C(\C)CCC(=O)c1ccoc1)CCC[C@H](C)/C=C1\OC(=O)C(C)=C1OC`, the outcome in the data set on Human alphaherpesvirus 1 [4] and in the data set on Poliovirus 1 [5] was inactive.
